Data as given in patent US5712417A, “Inhibitors of retroviral proteases” (Abbott Laboratories, priority 1989, dated 1998).
pIC50: −log10 of the molar value. Structures can show the parent of a compound that is named as a salt. Where a SMILES comes first, the peptide text is derived from it. [ ]: non-standard residue; d: D form. The star is where a group is joined. Sta = CC(C)C[C@H](N)[C@@H](O)CC(=O)O; Isovaleryl = CC(C)CC(=O)*

Columns and labels:
HIV protease [1] = details: literature (Katoh et al., Nature 1987); cited from earlier work
core protein p24 = details: high doses; cited from earlier work
HIV = details: first strains of HIV; cited from earlier work
[2] = in many cases require discontinuation of the therapy; cited from earlier work
HIV protease [3] = target: T1, HIV protease (Human immunodeficiency virus type 1 group M subtype B, UniProt P04585); test: Inhibition of HIV protease (cleavage of H-Ser-Phe-Asn-Phe-Opr-Gln-Ile-OH, HPLC); assay type: biochemical; details: inhibitor concentration at which the cleavage rate is halved; pH 6, 2 hours; read-out: IC50
T1 construct: HIV protease consists of 99 amino acids and is evidently split off by itself from the pol polyprotein
Method in brief: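 Substrate H-Ser-Phe-Asn-Phe-Opr-Gln-Ile-OH in MGTE buffer (MES, glycerol, Triton X-100, PMSF, pH 6) preincubated with inhibitor at 37 °C for 5-10 min, then reacted with protease at 35 °C for 2 h. RP18 HPLC at 215 nm; tetrapeptide fraction gives cleavage rate, IC50 where rate is halved.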

pIC50 (HIV protease [3]) | SMILES | also measured
8.89 | CC(C)C[C@H](NC(=O)[C@@H](NC(=O)[C@@H](N)Cc1ccccc1)C(C)C)C(O)C(O)[C@H](CC(C)C)NC(=O)[C@@H](NC(=O)[C@@H](N)Cc1ccccc1)C(C)C (stereo partly drawn) [Example 55, N,N'-bis-(L-Phenylalanyl-L-valyl)-4S,7S-diamino-2,9-dimethyldecane-5,6-dioldihydrochloride] | 
7.49 | CC(C)[C@H](NC(=O)C(Cc1ccccc1)CS(=O)(=O)Cc1ccc(Cl)cc1)C(=O)N[C@@H](Cc1ccccc1)[C@@H](O)[C@H](O)[C@H](Cc1ccccc1)NC(=O)[C@@H](NC(=O)C(Cc1ccccc1)CS(=O)(=O)Cc1ccc(Cl)cc1)C(C)C (stereo partly drawn) [Example 123, N,N'-bis-<(2-(p-Chlorobenzylsulfonylmethyl)-3-phenyl-propionyl)-L-valyl>-2S,5S-diamino-1,6-diphenylhexane-3R,4R-diol] | 
6.66 | CC(C)[C@H](NC(=O)[C@@H](N)Cc1ccccc1)C(=O)N[C@H](CNC[C@H](Cc1ccccc1)NC(=O)[C@@H](NC(=O)[C@@H](N)Cc1ccccc1)C(C)C)Cc1ccccc1 [Example 21, Bis-(N-(L-phenylalanyl-L-valyl)-2S-amino-3-phenylpropyl)-amine trihydrochloride] | 
4.70 | N[C@@H](CCCCNC(=O)OCc1ccccc1)C(=O)N[C@@H](Cc1ccccc1)[C@@H](O)[C@H](O)[C@H](Cc1ccccc1)NC(=O)[C@@H](N)CCCCNC(=O)OCc1ccccc1 [Example 132, N,N'-bis-<N^6 -Benzoxycarbonyl-L-lysyl>-2S,5S-diamino-1,6-diphenylhexane-3R,4R-diol dihydrochloride] | 
8.70 | CC(C)[C@H](NC(=O)[C@@H]1Cc2ccccc2CN1)C(=O)N[C@@H](Cc1ccccc1)[C@@H](O)[C@H](O)[C@H](Cc1ccccc1)NC(=O)[C@@H](NC(=O)[C@@H]1Cc2ccccc2CN1)C(C)C [Example 120, N,N'-bis-<L-1,2,3,4-Tetrahydroisoquinolin-3-ylcarbonyl-L-valyl>-2S,5S-diamino-1,6-diphenylhexane-3R,4R-diol diacetate] | 

The next lines start with the compound.

SMILES | pIC50 (HIV protease [3]) | also measured
CC(C)CC(=O)N[C@H](C(=O)N[C@H](C(=O)N[C@@H](CC(C)C)[C@@H](O)CC(=O)N[C@@H](C)C(=O)N[C@@H](CC(C)C)[C@@H](O)CC(=O)O)C(C)C)C(C)C [Pepstatin A] (Isovaleryl-VV[Sta]A[Sta]-OH) |  | pIC50 (HIV protease [1]): […]; reducing the formation of the core protein p24 (core protein p24): capable of reducing the formation of the core protein p24
Cc1cn([C@H]2C[C@H](N=[N+]=[N-])[C@@H](CO)O2)c(=O)[nH]c1=O [Zidovudine (AZT)] |  | sensitivity of HIV strains toward AZT (HIV): significantly lower sensitivity; toxic side effects [2]: serious toxic side effects
CC(C)[C@H](NC(=O)[C@@H](N)CCCCN)C(=O)N[C@@H](Cc1ccccc1)[C@@H](O)[C@H](O)[C@H](Cc1ccccc1)NC(=O)[C@@H](NC(=O)[C@@H](N)CCCCN)C(C)C [Example 10, N,N'-bis-(L-lysyl-L-valyl)-2S,5S-diamino-1,6-diphenylhexane-3R,4R-diol tetrahydrochloride] | 7.77 | 
CC(C)[C@H](NC(=O)C(Cc1ccccc1)CS(=O)(=O)N1CCC(NC(=O)OC(C)(C)C)CC1)C(=O)N[C@@H](Cc1ccccc1)[C@@H](O)[C@H](O)[C@H](Cc1ccccc1)NC(=O)[C@@H](NC(=O)C(Cc1ccccc1)CS(=O)(=O)N1CCC(NC(=O)OC(C)(C)C)CC1)C(C)C (stereo partly drawn) [Example 98, N,N'-bis-<2-Benzyl-3-(4-tert.-butoxycarbonylamino-1-piperidylsulfonyl)-propionyl-L-valyl>-2S,5S-diamino-1,6-diphenylhexane-3R,4R-diol] | 6.00 | 
CC(C)[C@H](NC(=O)OC(C)(C)C)C(=O)N[C@H](Cc1ccccc1)[C@@H](O)[C@H](O)[C@@H](Cc1ccccc1)NC(=O)[C@@H](NC(=O)OC(C)(C)C)C(C)C [Example 127, N,N'-bis-<tert.-Butoxycarbonyl-L-valyl>-2R,5R-diamino-1,6-diphenylhexane-3R,4R-diol] | 7.34 | 
CC(C)[C@H](NC(=O)[C@H](CCC(=O)OCc1ccccc1)NC(=O)OC(C)(C)C)C(=O)N[C@@H](Cc1ccccc1)[C@H](O)[C@@H](O)[C@H](Cc1ccccc1)NC(=O)[C@@H](NC(=O)[C@H](CCC(=O)OCc1ccccc1)NC(=O)OC(C)(C)C)C(C)C [Example 84, N,N,-bis-<(N-tert.-Butoxycarbonyl-O-benzyl-L-glutamyl)-L-valyl>-2S,5S-diamino-1,6-diphenylhexane-3S,4S-diol] | 6.96 | 
CC(C)[C@H](NC(=O)[C@@H](N)Cc1ccccc1)C(=O)N[C@@H](Cc1ccccc1)[C@H](O)[C@@H](O)[C@H](Cc1ccccc1)NC(=O)[C@@H](NC(=O)[C@@H](N)Cc1ccccc1)C(C)C [Example 17, N,N'-bis-(L-Phenylalanyl-L-valyl)-2S,5S-diamino-1,6-diphenylhexane-3S,4S-diol dihydrochloride] | 9.07 | 
